Experimental data from US12391675B2, “NLRP3 modulators” (INNATE TUMOR IMMUNITY, INC., priority 2019, dated 2025).
pEC50: −log10 of the molar value.

Key:
[1] = target: T1, NLRP3 (Homo sapiens, UniProt Q96P20); test: Measurement of IL-1β production in PMA-differentiated THP-1 cells (NLRP3 hIL1B EC50); format: cell-based
T1 construct: host or cells: PMA-differentiated THP-1 cells
Procedure: Measurement of IL-1β Production in PMA-Differentiated THP-1 Cells
THP-1 cells were purchased from the American Type Culture Collection and sub-cultured according to instructions from the supplier. Prior to experiments, cells were cultured in RPMI 1640 containing 10% heat inactivated FBS, penicillin (100 units/ml) and streptomycin (100 μg/ml), and maintained in log phase prior to experimental setup. Prior to the experiment THP-1 were treated with PMA (Phorbol 12-myristate 13-acetate) (10 μg/ml) for 24 hours. The day of the experiment the media was removed and attaching cells were treated with trypsin for 2 minutes, cells were then collected, washed with PBS (phosphate buffer saline), spin down, resuspended in 2% heat inactivated FBS with RPMI at a concentration of 1×10^6 cells/ml, and 100 μl was plated in a 96 well plate. Compounds were dissolved in dimethyl sulfoxide (DMSO) and added to the culture medium to achieve desired concentration (e.g. 100, 30, 10, 3, 1, 0.3 or 0.1 μM). Cells were incubated with compounds for 4 hours. Cell free supernatant was collected and the production of IL-1β was evaluated by ELISA. A vehicle only control was run concurrently with each experiment. Final DMSO concentration was 1%.
Measurement of IL-1β Production in PMA-Differentiated THP-1 Cells (Alternative Procedure)
THP-1 cells were purchased from the American Type Culture Collection and sub-cultured according to instructions from the supplier. Prior to experiments, cells were cultured in RPMI 1640 containing 10% heat inactivated FBS, penicillin (100 units/ml), streptomycin (100 μg/ml), HEPES (10 mM) and sodium pyruvate (1 mM) and maintained in log phase prior to experimental setup. Prior to the experiment, THP-1 cells were treated with PMA (Phorbol 12-myristate 13-acetate) (20 μg/ml) overnight. The day of the experiment, the media was removed and attached cells were treated with trypsin for 2 minutes, cells were then collected, washed with PBS (phosphate buffer saline), pelleted by centrifugation and resuspended in 2% heat inactivated FBS with RPMI at a concentration of 50,000 cells/well in a 384 well plate. Cell free supernatant was collected and the production of IL-1β was evaluated by ELISA. Compounds were dissolved in dimethyl sulfoxide (DMSO) and added to the culture medium to achieve desired concentration (e.g. 100, 30, 10, 3, 1, 0.3 or 0.1 μM). Cells were incubated with compounds for 2 hours. A vehicle only control was run concurrently with each experiment. Final DMSO concentration was 1%.
Measurement of IL-1β Production—hTRF Protocol (Second Alternative Procedure)
Serial dilutions of compounds in DMSO were added to low volume 384 well plates at 100 nl/well using an ECHO 550 acoustic dispenser (Labcyte) to achieve final starting concentration of 10 μM in assay.
THP-1 cells in RPMI (Gibco, 11875) media with 10% FBS at a density of 1×10^6 cell/ml in a T175 flask were treated with a final concentration of phorbol 12-myristate 13-acetate (PMA) (Sigma, P1585) of 50 ng/ml overnight at 37° C. at 5% CO2 for differentiation. Cells were harvested the next day after rinsing well wth dPBS using 0.5% trypsin. A cell solution was prepared of 1×10^6 cells/ml for 50,000 cells in 50 μl/well in RPMI media with 2% FBS. Cells were plated using a multichannel pipette onto the compound dilutions in Greiner, 384 well, black clear bottom tissue culture treated plates (781090). The plates were incubated in 37° C. incubator at 5% CO2 for 2 hours.
After the 2 hour incubation, the cell plates were spun in the centrifuge for 5 minutes at 1200 rpm. Using the Felix (CyBio), 8 μl of the supernatant was transferred to 384 well, low volume, white proxy plates. (Perkin Elmer, 6008230). A human IL1beta hTRF kit was used to analyze the supernatant (CISBIO, 62HIL1BPEG). The kit instructions were followed for preparing the IL1Beta standard curve and then the antibodies from the kit were diluted 1:40 rather than 1:20 as kit instructed. […]

[2] = target: T2, human TLR7 (Homo sapiens, UniProt Q9NYK1); test: In vitro human TLR7 binding reporter assay (HEK-Blue cells, NF-kB/AP1-inducible SEAP reporter); format: cell-based; settings: HEK-Blue cells expressing TLR7, SEAP reporter; read-out: TLR7 agonist EC50
T2 construct: host or cells: human HEK-Blue cells co-expressing TLR7 and an NF-kB/AP1-inducible SEAP reporter
T2 sequence (Q9NYK1 27-1049): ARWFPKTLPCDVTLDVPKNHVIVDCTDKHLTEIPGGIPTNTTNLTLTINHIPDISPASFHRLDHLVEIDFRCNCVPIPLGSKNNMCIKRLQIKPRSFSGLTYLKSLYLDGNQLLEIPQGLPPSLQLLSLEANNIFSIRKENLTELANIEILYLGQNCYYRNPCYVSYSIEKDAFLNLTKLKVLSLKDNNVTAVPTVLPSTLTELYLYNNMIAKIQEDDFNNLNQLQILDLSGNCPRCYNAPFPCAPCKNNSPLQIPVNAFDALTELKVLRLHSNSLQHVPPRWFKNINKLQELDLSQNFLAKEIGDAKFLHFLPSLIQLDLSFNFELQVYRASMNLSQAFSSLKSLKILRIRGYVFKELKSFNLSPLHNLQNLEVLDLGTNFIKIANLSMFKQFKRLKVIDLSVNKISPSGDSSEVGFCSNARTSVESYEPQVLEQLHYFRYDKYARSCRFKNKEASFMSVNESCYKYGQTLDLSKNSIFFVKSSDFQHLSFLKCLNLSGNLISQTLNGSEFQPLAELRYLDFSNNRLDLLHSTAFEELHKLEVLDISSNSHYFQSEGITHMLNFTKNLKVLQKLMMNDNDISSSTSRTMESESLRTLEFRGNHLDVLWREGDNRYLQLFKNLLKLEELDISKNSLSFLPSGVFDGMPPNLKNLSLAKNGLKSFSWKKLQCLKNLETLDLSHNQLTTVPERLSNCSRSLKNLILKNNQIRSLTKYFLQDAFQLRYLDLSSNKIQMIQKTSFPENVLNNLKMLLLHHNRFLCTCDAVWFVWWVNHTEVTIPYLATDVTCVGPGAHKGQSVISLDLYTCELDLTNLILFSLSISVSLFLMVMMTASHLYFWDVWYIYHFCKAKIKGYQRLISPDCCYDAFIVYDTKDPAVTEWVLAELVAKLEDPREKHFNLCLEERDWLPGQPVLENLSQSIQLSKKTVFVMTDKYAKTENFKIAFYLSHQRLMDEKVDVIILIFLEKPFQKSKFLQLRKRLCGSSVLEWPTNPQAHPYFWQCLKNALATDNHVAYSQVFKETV
Procedure: In Vitro Human TLR7 and TLR8 Binding Reporter Assays
Logarithmically-growing human HEK-Blue cells co-expressing a TLR7 or TLR8 gene and a NF-kB/AP1-inducible SEAP (secreted embryonic alkaline phosphatase; Invivogen, San Diego, CA) reporter gene are added to individual wells of a 384-well plate (15,000 cells per 20 μL per well) and maintained for 24 h at 37° C., 5% CO2. Test compounds or DMSO are distributed to separate wells the next day using acoustic liquid handling technology (100 nL per well) and cells are subsequently incubated for 18 h at 37° C., 5% CO2. Cellular SEAP production is measured using an Envision plate reader instrument thirty minutes after adding freshly-made Quanti-Blue reagent (prepared by following manufacturer instructions; Invivogen, San Diego, CA) to the HEK-Blue TLR Nf-kB-SEAP cell reactions. All EC50 values (half-maximal effective concentration) are determined using proprietary data analysis software.

T1 sequence (Q96P20 whole entry): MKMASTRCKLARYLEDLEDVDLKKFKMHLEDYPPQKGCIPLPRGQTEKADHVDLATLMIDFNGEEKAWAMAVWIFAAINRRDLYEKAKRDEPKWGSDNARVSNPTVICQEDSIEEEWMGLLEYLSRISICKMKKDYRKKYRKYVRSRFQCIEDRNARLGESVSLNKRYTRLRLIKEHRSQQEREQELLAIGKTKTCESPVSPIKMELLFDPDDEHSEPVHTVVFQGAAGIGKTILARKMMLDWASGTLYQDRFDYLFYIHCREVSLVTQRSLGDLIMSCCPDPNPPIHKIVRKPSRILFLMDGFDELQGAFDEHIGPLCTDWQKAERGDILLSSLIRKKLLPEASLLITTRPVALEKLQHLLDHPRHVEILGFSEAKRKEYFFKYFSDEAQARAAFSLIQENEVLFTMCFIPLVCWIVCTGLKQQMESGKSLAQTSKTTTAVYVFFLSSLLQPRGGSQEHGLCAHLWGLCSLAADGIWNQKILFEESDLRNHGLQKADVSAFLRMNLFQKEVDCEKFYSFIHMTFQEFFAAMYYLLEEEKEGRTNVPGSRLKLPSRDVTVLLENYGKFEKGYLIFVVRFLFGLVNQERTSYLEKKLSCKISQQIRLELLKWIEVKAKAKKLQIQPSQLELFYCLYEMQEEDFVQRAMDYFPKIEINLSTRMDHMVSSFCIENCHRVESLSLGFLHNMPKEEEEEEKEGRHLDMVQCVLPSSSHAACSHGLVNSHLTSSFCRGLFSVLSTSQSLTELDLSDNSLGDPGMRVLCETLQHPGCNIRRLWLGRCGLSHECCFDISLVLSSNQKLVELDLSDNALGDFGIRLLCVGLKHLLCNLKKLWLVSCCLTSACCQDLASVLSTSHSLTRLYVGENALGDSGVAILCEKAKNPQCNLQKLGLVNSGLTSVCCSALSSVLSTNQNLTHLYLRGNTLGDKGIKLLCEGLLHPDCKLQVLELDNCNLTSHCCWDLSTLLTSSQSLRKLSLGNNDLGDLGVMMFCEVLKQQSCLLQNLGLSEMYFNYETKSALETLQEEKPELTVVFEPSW

| pEC50 [1] | pEC50 [2] | Compound |
| --- | --- | --- |
| 6.89 | > 4.30 | Nc1cc(NC23CC(CO)(C2)C3)c2ccc(-c3ccn[nH]3)cc2n1 [Example 16, (3-((2-amino-7-(1H-pyrazol-5-yl)quinolin-4-yl)amino)bicyclo[1.1.1]pentan-1-yl)methanol] |
| 5.70 | > 4.30 | C=CC12CCC(CNc3cc(N)nc4cc(-c5ccn[nH]5)ccc34)(CC1)CO2 [Example 25, 7-(1H-pyrazol-3-yl)-N4-((1-vinyl-2-oxabicyclo[2.2.2]octan-4-yl)methyl)quinoline-2,4-diamine] |
| 5.73 |  | Nc1cc(NCC23CCC(CO)(CC2)OC3)c2ccc(-c3ccsc3)cc2n1 [Example 51, (4-(((2-amino-7-(thiophen-3-yl)quinolin-4-yl)amino)methyl)-2-oxabicyclo[2.2.2]octan-1-yl)methanol] |
